This is an account of results in paper PMC6198068, “Discovery of a Novel Nav1.7 Inhibitor From Cyriopagopus albostriatus Venom With Potent Analgesic Efficacy” (Frontiers in Pharmacology, 2018).

One test relates to hot plate test in mice. The test can be described thus: Hot plate test. The note with it: mouse, in vivo. It counts as in vivo, ICR mice. Here is the method: (§1) The ICR mice (18–22 g) used in this study were purchased from the Experimental Animal Center of SLac-kinda (Changsha, China). The animals were maintained at 20–25°C and freely allowed to standard rodent chow and water ad libitum. Ethical approval for in vivo experiments in animals was approved by the Animal Care and Use Committee (ACUC) at the Hunan Province Animal Management Office (HPAMO).
According to a previous method ([Meng et al., 2017]), a hot plate apparatus (model YLS-21A, Jinan, China) maintained at 55 ± 1°C, was used to measure the pain threshold of mice subjected to a thermal stimulus. Each female mouse was placed on hot plate to observe its pain response (hind-paw-licking or jumping) acted as its own control. The mice whose latent response times were shorter than 5 s or longer than 30 s were excluded from the test.
In general terms: In hot-plate and tail-flick tests a longer latency is read as antinociception.

Test [1] concerns formalin-induced paw licking in mice. Put plainly: Formalin-induced paw licking. It counts as in vivo, ICR mice. The note with it: mouse, in vivo, ip. As to the method:
as §1
A formalin test was performed according to the previous method ([Owoyele et al., 2005]). […] The time spent licking the injected paw by each mouse was recorded by a digital stopwatch during Phase I (0–15 min post-injection) and Phase II (15–40 min post-injection).

The next test has as its system Nav1.4. Details: method as in Xiao et al., 2008; Goncalves et al., 2018. The note with it: skeletal isoform; ref Xiao et al., 2008; Goncalves et al., 2018; cited from earlier work.

For the compound `CN1CC[C@]23c4c5ccc(O)c4O[C@H]2[C@@H](O)C=C[C@H]3[C@H]1C5` [morphine, reference compound], the “latency time, hot plate” value with hot plate test in mice was 15.2 ± 1.9 s. In addition, in test [1], the “analgesic effect on Phase I compared to control” value is given as “modest analgesia”; the “paw licking time, Phase I” value turned out to be 64.1 ± 8.5 s; the “paw licking time, Phase II” value was found to be 126.1 ± 19.8 s.
The IC50 is the point on the concentration scale where inhibition reaches its midpoint. In the case of “HWTX-IV: spider peptide toxin; printed as μ-TRTX-Hhn1b (HWTX-IV) in b50, μ-TRTX-Hs2a (HWTX-IV) in b51”, the IC50 in the test with Nav1.4 was 400 nM.
